Measured values: patent US11311593B2, “Root extracts from plants of the Morus genus and uses of same” (PLANT ADVANCED TECHNOLOGIES PAT, priority 2017, dated 2022)
Entries after “also recorded” stand apart in the source; their conditions may differ.

Experiments:
[1] = molecular target: T1, hyaluronidase originating from bull testicles (type IV-S) (Bos taurus, UniProt Q2YDK3); assay: Anti-hyaluronidase inhibiting activity, hyaluronic acid as substrate, precipitation with acidic BSA; format: biochemical
T1 construct: hyaluronidase originating from bull testicles (type IV-S); from tissue; host or cells: bull testicles
T1 sequence (Q2YDK3 36-553): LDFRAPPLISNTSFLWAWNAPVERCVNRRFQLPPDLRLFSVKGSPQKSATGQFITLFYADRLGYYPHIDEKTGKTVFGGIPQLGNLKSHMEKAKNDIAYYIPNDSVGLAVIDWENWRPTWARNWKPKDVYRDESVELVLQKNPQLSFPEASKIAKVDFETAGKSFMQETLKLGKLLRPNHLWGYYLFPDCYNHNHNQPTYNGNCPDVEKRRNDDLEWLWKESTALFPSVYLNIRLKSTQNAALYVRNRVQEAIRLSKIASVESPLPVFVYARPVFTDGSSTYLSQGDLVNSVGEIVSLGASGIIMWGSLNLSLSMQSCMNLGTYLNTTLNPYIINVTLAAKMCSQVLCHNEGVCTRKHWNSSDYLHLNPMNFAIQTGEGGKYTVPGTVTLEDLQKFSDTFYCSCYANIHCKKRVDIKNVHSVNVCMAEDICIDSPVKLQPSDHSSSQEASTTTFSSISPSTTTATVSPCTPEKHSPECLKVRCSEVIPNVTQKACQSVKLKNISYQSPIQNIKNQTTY
Protocol: A root extract of Morus Alba was prepared in accordance with the protocol described in Example 5. Hyaluronidase catalyzes the hydrolysis of hyaluronic acids into monosaccharides, disaccharides and short oligosaccharides. The measurement of the anti-hyaluronidase inhibiting activity was carried out using hyaluronic acid (HA) as a substrate in order to follow its reduction during the enzymatic reaction, the slope of the reduction of the concentration of HA during the reaction being proportional to the enzymatic activity.
The concentration of HA was measured in accordance with the following principle: in the presence of an acidic solution of bovine serum albumin, HA precipitates. Thus, in the case of the presence of HA, a precipitate is formed and in the case of complete hydrolysis of the HA, no precipitate is observed. Thus, the quantity of precipitation is proportion& to the HA content. […]
In order to follow the enzymatic degradation of the HA, a volume of 50 μl of RM was removed every 15 minutes, mixed with a volume of 250 μL of the solution of acidic BSA (acidic solution of bovine serum albumin: 24 mM sodium acetate, 79 mM acetic add and 0.1% (w/v) bovine serum albumin, pH 3.75) then incubated for 10 min at ambient temperature. The quantity of precipitate formed was then measured using a plate reader (diffusion of light at 600 nm). […]

fungal tyrosinase = assay: Target Binding affinity test for tyrosinase (UPLC-MS of bound ligands); details: for Relative affinity (RA) for tyrosinase: ligands in non-stimulated M. alba root extract, moracenin B = reference ligand
Excerpt: It is based on the principle of bringing the ligands and the target into contact in the liquid phase so that the ligands that have the greatest affinity with the target bind to it, elimination of the ligands that are not fixed, separation of the complexes in order to recover the ligands which have been fixed, then quantification of the latter. In a first step of the method, the extract and the target are mixed. The compounds of the extract compete for access to the binding sites of the target. The strongest compounds displace the weakest and are retained more effectively by the target. […] A reference sample was also prepared by diluting the sample to be analyzed 10-fold in a solution of water and a quarter of the volume of acetonitrile. […] Pre-conditioning step-Wells with a filtering membrane were pre-conditioned with a volume of 500 μL of an 85% solution of ammonium acetate and 15% of ethanol which was passed through the membrane by centrifuging at 14000 g for 60 seconds. 2. […] 3. Washing step-The mixture of the enzyme and the sample to be analyzed was deposited in a well that had been pre-conditioned in the pre-conditioning step, then centrifuged at 14000 g until most of the solvent had been eliminated. […] This procedure was repeated three times and eliminated all of the compounds that were not bound to the enzyme. 4. Separation step-The enzyme-ligand complexes retained in the filter were re-suspended in a volume of 10 μL of ultra-pure water, then mixed with a volume of 40 μL of acetonitrile in order to denature and precipitate the enzyme and, at the same time, to liberate the ligands. The mixture was centrifuged at 21000 g for 10 min in order to separate the precipitate from the supernatant. 5. Analysis step-Said supernatant was analyzed by liquid phase chromatography coupled to a mass spectrometer, also known by the acronym UPLC-MS. The reference sample was also analyzed in the same manner, using the same analytical conditions. The UPLC-MS analysis was carried out in accordance with the protocol described in Example 1. The chromatograms obtained are presented in FIGS. 3A and 3B and represent a signal intensity as a function of retention time in a column. […] Each peak is associated with one of the ligands present in the analyzed extract. The quantity associated with each ligand corresponds to the area of the peak. […] For each ligand, an affinity ratio, RACEi, was calculated as follows: [formula] where: NF is a normalization factor; […] the intensity of the analytical signal for the ligand CEi in the reference sample; ISeq,REF is the intensity of the analytical signal for the reference ligand REF (here, moracenin B) in the reference sample; […] the intensity of the analytical signal for the ligand CEi in the treated solution (the sample to be analyzed after steps 2 to 4 for binding and separation of the ligands) for the detached ligands; ISTB,REF is the intensity of the analytical signal for the reference ligand REF (here, moracenin B) in the treated solution (the sample to be analyzed after steps 2 to 4 for binding and separation of the ligands) for the detached ligands; RA, CEi is the relative affinity ratio (RA), representing an affinity of the ligand CEi for the target. The value of the ratio increases with affinity.

| Structure (SMILES) | inhibition at 10 µM [1] [%] | Relative affinity (RA) for tyrosinase (fungal tyrosinase) | affinity for tyrosinase compared with the other compounds of the extract (in words) (fungal tyrosinase; peak areas of FIG. 3B / relative affinities) |
| --- | --- | --- | --- |
| CC(C)=CCc1c(O)ccc(C(=O)[C@@H]2CC(C)=C[C@H](c3c(O)cc(O)c4c(=O)c(CC=C(C)C)c(-c5ccc(O)cc5O)oc34)[C@H]2c2ccc(O)cc2O)c1O [Moracenin A, moracenin A] | 55.1 | 5.1 | – |
| CC(C)=CCc1c(-c2ccc(O)cc2O)oc2c([C@H]3C=C(C)C[C@H](C(=O)c4ccc(O)cc4O)[C@@H]3c3ccc(O)cc3O)c(O)cc(O)c2c1=O [Moracenin B, moracenin B] | – | 1.0 | – |
| CC(C)=CCc1c(O)ccc(C(=O)C2C(c3ccc(O)cc3O)CC3(C)CC2c2c(O)cc(-c4cc5ccc(O)cc5o4)cc2O3)c1O (centres unmarked) [Wittiorumin F, wittiorumin F] | – | 15.5 | greater affinity; also recorded: higher affinity |
